From ChEMBL document CHEMBL5634143, “Development of teixobactin analogues containing hydrophobic, non-proteogenic amino acids that are highly potent against multidrug-resistant bacteria and biofilms” (Eur J Med Chem, 2023)
Values after ≈ are worked out from the molar mass of the structure shown.

Key:
Type in all cases: functional
Enterococcus faecium [1] = experiment: Antibacterial activity against Vancomycin-resistant Enterococcus […] ATCC 700802 assessed as inhibition of bacterial growth
Enterococcus faecium [2] = experiment: Antibacterial activity against Vancomycin-resistant Enterococcus […] ATCC 29212 assessed as inhibition of bacterial growth; settings: Enterococcus faecalis
Staphylococcus aureus [3] = experiment: Antibacterial activity against methicilin-resistant Staphylococcus aureus ATCC 700699 assessed as inhibition of bacterial growth
Staphylococcus aureus [4] = experiment: Antibacterial activity against methicilin-resistant Staphylococcus aureus 21455 assessed as inhibition of bacterial growth
Staphylococcus aureus [5] = experiment: Antibacterial activity against Staphylococcus aureus 4299 assessed as inhibition of bacterial growth
[6] = tested on: Staphylococcus saprophyticus; experiment: Antibacterial activity against Staphylococcus saprophyticus ATCC 49453 assessed as inhibition of bacterial growth
Staphylococcus aureus [7] = experiment: Antibacterial activity against methicilin-resistant Staphylococcus aureus 42412 assessed as inhibition of bacterial growth
[8] = tested on: Staphylococcus saprophyticus; experiment: Antibacterial activity against Staphylococcus saprophyticus ATCC BAA 750 assessed as inhibition of bacterial growth
Staphylococcus aureus [9] = experiment: Antibacterial activity against Staphylococcus aureus 29213 assessed as inhibition of bacterial growth
[10] = tested on: Staphylococcus epidermidis; experiment: Antibacterial activity against Staphylococcus epidermidis 12228 assessed as inhibition of bacterial growth
Enterococcus faecium [11] = experiment: Antibacterial activity against Vancomycin-resistant Enterococcus faecium 1014 assessed as inhibition of bacterial growth
[12] = tested on: Staphylococcus saprophyticus; experiment: Antibacterial activity against Staphylococcus saprophyticus ATCC 49907 assessed as inhibition of bacterial growth
[13] = tested on: Staphylococcus saprophyticus; experiment: Antibacterial activity against Staphylococcus saprophyticus ATCC 15305 assessed as inhibition of bacterial growth
Bacillus cereus = experiment: Antibacterial activity against Bacillus cereus ATCC 11788 assessed as inhibition of bacterial growth
Bacillus subtilis = experiment: Antibacterial activity against Bacillus subtilis ATCC 6633 assessed as inhibition of bacterial growth
Staphylococcus aureus [14] = experiment: Antibacterial activity against methicilin-resistant Staphylococcus aureus 1003 assessed as inhibition of bacterial growth

## CCC[C@@H]1NC(=O)[C@H](CCCNC(=N)N)NC(=O)[C@H](NC(=O)[C@H](CO)NC(=O)[C@@H](NC(=O)[C@H](NC(=O)[C@@H](CCC(N)=O)NC(=O)[C@H](CO)NC(=O)[C@@H](NC(=O)[C@@H](Cc2ccccc2)NC)[C@@H](C)CC)[C@@H](C)CC)[C@@H](C)CC)[C@H](C)OC(=O)[C@H]([C@@H](C)CC)NC1=O
Enterococcus faecium [1]
  MIC: 1 µg/mL (≈ 0.786 µM)
Enterococcus faecium [2]
  MIC: 2 µg/mL (≈ 1.57 µM)
Staphylococcus aureus [3]
  MIC: 0.5 µg/mL (≈ 0.393 µM)
Staphylococcus aureus [4]
  MIC: 0.25 µg/mL (≈ 0.196 µM)
Staphylococcus aureus [5]
  MIC: 0.25 µg/mL (≈ 0.196 µM)
[6]
  MIC: 0.063 µg/mL (≈ 0.0495 µM)
Staphylococcus aureus [7]
  MIC: 0.063 µg/mL (≈ 0.0495 µM)
[8]
  MIC: 0.063 µg/mL (≈ 0.0495 µM)
Staphylococcus aureus [9]
  MIC: 0.5 µg/mL (≈ 0.393 µM)
[10]
  MIC: 0.063 µg/mL (≈ 0.0495 µM)
Enterococcus faecium [11]
  MIC: 2 µg/mL (≈ 1.57 µM)
[12]
  MIC: 0.063 µg/mL (≈ 0.0495 µM)
[13]
  MIC: 0.063 µg/mL (≈ 0.0495 µM)
Bacillus cereus
  MIC: 0.5 µg/mL (≈ 0.393 µM)
Bacillus subtilis
  MIC: 0.063 µg/mL (≈ 0.0495 µM)
Staphylococcus aureus [14]
  MIC: 1 µg/mL (≈ 0.786 µM)

## CCC[C@@H]1NC(=O)[C@H](C)NC(=O)[C@H](NC(=O)[C@H](CO)NC(=O)[C@@H](NC(=O)[C@H](NC(=O)[C@@H](CCCNC(=N)N)NC(=O)[C@H](CO)NC(=O)[C@@H](NC(=O)[C@@H](Cc2ccccc2)NC)[C@@H](C)CC)[C@@H](C)CC)[C@@H](C)CC)[C@H](C)OC(=O)[C@H]([C@@H](C)CC)NC1=O
Enterococcus faecium [1]
  MIC: 0.5 µg/mL (≈ 0.411 µM)
Enterococcus faecium [2]
  MIC: 1 µg/mL (≈ 0.823 µM)
Staphylococcus aureus [3]
  MIC: 0.063 µg/mL (≈ 0.0518 µM)
Staphylococcus aureus [4]
  MIC: 0.125 µg/mL (≈ 0.103 µM)
Staphylococcus aureus [5]
  MIC: 0.063 µg/mL (≈ 0.0518 µM)
[6]
  MIC: 0.063 µg/mL (≈ 0.0518 µM)
Staphylococcus aureus [7]
  MIC: 0.063 µg/mL (≈ 0.0518 µM)
[8]
  MIC: 0.063 µg/mL (≈ 0.0518 µM)
Staphylococcus aureus [9]
  MIC: 0.125 µg/mL (≈ 0.103 µM)
[10]
  MIC: 0.063 µg/mL (≈ 0.0518 µM)
Enterococcus faecium [11]
  MIC: 1 µg/mL (≈ 0.823 µM)
[12]
  MIC: 0.063 µg/mL (≈ 0.0518 µM)
[13]
  MIC: 0.063 µg/mL (≈ 0.0518 µM)
Bacillus cereus
  MIC: 0.5 µg/mL (≈ 0.411 µM)
Bacillus subtilis
  MIC: 0.063 µg/mL (≈ 0.0518 µM)
Staphylococcus aureus [14]
  MIC: 0.125 µg/mL (≈ 0.103 µM)

## CCC[C@@H]1NC(=O)[C@H](C)NC(=O)[C@H](NC(=O)[C@H](CO)NC(=O)[C@@H](NC(=O)[C@H](NC(=O)[C@@H](CCC(N)=O)NC(=O)[C@H](CCCNC(=N)N)NC(=O)[C@@H](NC(=O)[C@@H](Cc2ccccc2)NC)[C@@H](C)CC)[C@@H](C)CC)[C@@H](C)CC)[C@H](C)OC(=O)[C@H]([C@@H](C)CC)NC1=O
Enterococcus faecium [1]
  MIC: 1 µg/mL (≈ 0.796 µM)
Enterococcus faecium [2]
  MIC: 2 µg/mL (≈ 1.59 µM)
Staphylococcus aureus [3]
  MIC: 0.25 µg/mL (≈ 0.199 µM)
Staphylococcus aureus [4]
  MIC: 0.063 µg/mL (≈ 0.0501 µM)
Staphylococcus aureus [5]
  MIC: 0.063 µg/mL (≈ 0.0501 µM)
[6]
  MIC: 0.063 µg/mL (≈ 0.0501 µM)
Staphylococcus aureus [7]
  MIC: 0.063 µg/mL (≈ 0.0501 µM)
[8]
  MIC: 0.063 µg/mL (≈ 0.0501 µM)
Staphylococcus aureus [9]
  MIC: 0.125 µg/mL (≈ 0.0995 µM)
[10]
  MIC: 0.063 µg/mL (≈ 0.0501 µM)
Enterococcus faecium [11]
  MIC: 1 µg/mL (≈ 0.796 µM)
[12]
  MIC: 0.063 µg/mL (≈ 0.0501 µM)
[13]
  MIC: 0.063 µg/mL (≈ 0.0501 µM)
Bacillus cereus
  MIC: 0.063 µg/mL (≈ 0.0501 µM)
Bacillus subtilis
  MIC: 0.063 µg/mL (≈ 0.0501 µM)
Staphylococcus aureus [14]
  MIC: 0.125 µg/mL (≈ 0.0995 µM)

## CC[C@H](C)[C@H](NC(=O)[C@@H](Cc1ccccc1)NC)C(=O)N[C@@H](CO)C(=O)N[C@H](CCC(N)=O)C(=O)N[C@@H](C(=O)N[C@H](C(=O)N[C@@H](CO)C(=O)N[C@H]1C(=O)N[C@@H](CCCNC(=N)N)C(=O)N[C@@H](C2CCCCC2)C(=O)N[C@@H]([C@@H](C)CC)C(=O)O[C@H]1C)[C@@H](C)CC)[C@@H](C)CC
Enterococcus faecium [1]
  MIC: 0.5 µg/mL (≈ 0.381 µM)
Enterococcus faecium [2]
  MIC: 1 µg/mL (≈ 0.762 µM)
Staphylococcus aureus [3]
  MIC: 0.5 µg/mL (≈ 0.381 µM)
Staphylococcus aureus [4]
  MIC: 0.5 µg/mL (≈ 0.381 µM)
Staphylococcus aureus [5]
  MIC: 0.063 µg/mL (≈ 0.048 µM)
[6]
  MIC: 0.125 µg/mL (≈ 0.0952 µM)
Staphylococcus aureus [7]
  MIC: 0.063 µg/mL (≈ 0.048 µM)
[8]
  MIC: 0.063 µg/mL (≈ 0.048 µM)
Staphylococcus aureus [9]
  MIC: 0.063 µg/mL (≈ 0.048 µM)
[10]
  MIC: 0.063 µg/mL (≈ 0.048 µM)
Enterococcus faecium [11]
  MIC: 0.25 µg/mL (≈ 0.19 µM)
[12]
  MIC: 0.063 µg/mL (≈ 0.048 µM)
[13]
  MIC: < 0.063 µg/mL
Bacillus cereus
  MIC: 0.25 µg/mL (≈ 0.19 µM)
Bacillus subtilis
  MIC: 0.063 µg/mL (≈ 0.048 µM)
Staphylococcus aureus [14]
  MIC: 0.125 µg/mL (≈ 0.0952 µM)

## COc1c(N2C[C@@H]3CCCN[C@@H]3C2)c(F)cc2c(=O)c(C(=O)O)cn(C3CC3)c12 [MOXIFLOXACIN]
Enterococcus faecium [1]
  MIC: 0.25 µg/mL (≈ 0.623 µM)
Enterococcus faecium [2]
  MIC: 0.25 µg/mL (≈ 0.623 µM)
Staphylococcus aureus [3]
  MIC: 4 µg/mL (≈ 9.96 µM)
Staphylococcus aureus [4]
  MIC: 4 µg/mL (≈ 9.96 µM)
Staphylococcus aureus [5]
  MIC: 0.125 µg/mL (≈ 0.311 µM)
[6]
  MIC: 0.25 µg/mL (≈ 0.623 µM)
Staphylococcus aureus [7]
  MIC: 4 µg/mL (≈ 9.96 µM)
[8]
  MIC: 0.25 µg/mL (≈ 0.623 µM)
Staphylococcus aureus [9]
  MIC: 0.063 µg/mL (≈ 0.157 µM)
[10]
  MIC: 0.063 µg/mL (≈ 0.157 µM)
Enterococcus faecium [11]
  MIC: 16 µg/mL (≈ 39.9 µM)
[12]
  MIC: 0.125 µg/mL (≈ 0.311 µM)
[13]
  MIC: 0.25 µg/mL (≈ 0.623 µM)
Bacillus cereus
  MIC: 0.125 µg/mL (≈ 0.311 µM)
Bacillus subtilis
  MIC: 0.031 µg/mL (≈ 0.0772 µM)
Staphylococcus aureus [14]
  MIC: 4 µg/mL (≈ 9.96 µM)
